# From ChEMBL document CHEMBL1127393 (J Med Chem, 1994)
# How the values were obtained:
# [1] = Tested for the 50% inhibition level against [125I]- gastrin binding to guinea pig gastric glands; assay type: functional, tissue-based, Cavia porcellus, Stomach
# [2] = molecular target: T1, Gastrin/cholecystokinin type B receptor (Rattus norvegicus, UniProt P30553); assay: Tested for the 50% inhibition level against [125I]- gastrin binding in AR42J cells; assay type: cell-based, AR-42J
# T1 sequence (P30553 whole entry): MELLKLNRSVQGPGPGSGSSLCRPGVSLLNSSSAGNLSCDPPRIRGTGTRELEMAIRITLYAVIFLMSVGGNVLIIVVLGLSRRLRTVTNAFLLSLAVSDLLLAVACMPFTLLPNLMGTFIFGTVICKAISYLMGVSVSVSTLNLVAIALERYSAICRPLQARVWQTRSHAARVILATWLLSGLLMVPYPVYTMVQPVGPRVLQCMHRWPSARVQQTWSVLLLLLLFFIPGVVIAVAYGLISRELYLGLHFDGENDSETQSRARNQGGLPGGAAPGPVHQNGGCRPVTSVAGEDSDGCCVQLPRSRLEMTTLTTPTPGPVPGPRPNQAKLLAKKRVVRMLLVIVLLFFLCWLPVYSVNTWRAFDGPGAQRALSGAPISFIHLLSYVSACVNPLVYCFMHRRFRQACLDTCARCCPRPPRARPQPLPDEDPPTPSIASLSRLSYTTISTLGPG
EC50 [1],EC50 [2],Compound
63 µM,200 µM,O=C(CCC(=O)N(Cc1ccccc1)/N=N/CCCl)NCCC(=O)NC(Cc1c[nH]c2ccccc12)C(=O)O (stereo not drawn)
0.6 µM,–,CSCC[C@H](NC(=O)[C@H](Cc1c[nH]c2ccccc12)NC(=O)CNC(=O)[C@H](Cc1ccc(O)cc1)NC(=O)[C@H](C)NC(=O)[C@H](CCC(=O)O)NC(=O)[C@H](CCC(=O)O)NC(=O)[C@H](CCC(=O)O)NC(=O)[C@H](CCC(=O)O)NC(=O)[C@H](CCC(=O)O)NC(=O)[C@H](CC(C)C)NC(=O)[C@H](Cc1c[nH]c2ccccc12)NC(=O)[C@@H]1CCCN1C(=O)CNC(=O)[C@@H](N)CCC(=O)O)C(=O)N[C@@H](CC(=O)O)C(=O)N[C@@H](Cc1ccccc1)C(N)=O [GASTRIN]
